Consider 10 compounds from BindingDB's records for PubMed 39291025 (PI Health Sciences).

Some results are limits rather than exact numbers.

This experiment can be described thus: Inhibition of cGAS in human THP-1 cells […] incubated for 18 hrs by Lucia luciferase reporter based counter assay.
Consider `C[C@H]1CN2CC[C@@H]1n1c(nc3cc(Cl)ccc31)O[C@H]1C[C@@H](C(=O)O)N(C1)c1nc(nc3c1oc1ccccc13)C(F)(F)OCCCCC2=O`, for which the IC50 is above 10 µM.

In the case of `Cc1cccc2c1nc1n2[C@@H]2CCN(C[C@H]2C)C(=O)CCCCCC(F)(F)c2nc(c3oc4ccccc4c3n2)N2C[C@H](C[C@H]2C(=O)O)O1`, the 50% inhibitory concentration (IC50) was 6 µM. In other words, the single-digit micromolar range.

As to `C[C@@H]1CN2CC[C@H]1n1c(nc3ccccc31)O[C@H]1C[C@@H](C(=O)O)N(C1)c1nc(nc3c1oc1ccccc13)CCCCCOC2=O`, inhibition was half-maximal at 8.2 µM (IC50).

Turning to `C[C@H]1CN2CC[C@@H]1n1c(nc3ccccc31)O[C@H]1C[C@@H](C(=O)O)N(C1)c1nc(nc3c1oc1cc(Cl)ccc13)C(F)(F)CCCOCC2=O`, the IC50 was above 10 µM.

In the case of `C[C@H]1CN2CC[C@@H]1n1c(nc3cc(Cl)ccc31)O[C@H]1C[C@@H](C(=O)O)N(C1)c1nc(nc3c1oc1cc(Cl)ccc13)CCOCCCC2=O`, 9.5 µM corresponded to half-maximal inhibition (IC50).

`C[C@@H]1CN2CC[C@H]1n1c(nc3cc(Cl)ccc31)O[C@H]1C[C@@H](C(=O)O)N(C1)c1nc(nc3c1oc1ccccc13)CCOCCCC2=O` showed an IC50 above 10 µM.

With `CC(=O)[C@@H]1C[C@H]2CN1c1nc(nc3c1oc1ccccc13)CCOCCCC(=O)N1CC[C@@H]([C@@H](C)C1)n1c(nc3cc(Cl)ccc31)O2`, the IC50 is above 10 µM.

`C[C@H]1CN2CC[C@@H]1n1c(nc3ccccc31)O[C@H]1C[C@@H](C(=O)O)N(C1)c1nc(nc3c1oc1ccccc13)CCCCCN(C)C2=O` showed an IC50 of 7.3 µM.

The compound `C[C@H]1CN2CC[C@@H]1n1c(nc3ccccc31)O[C@H]1C[C@@H](C(=O)O)N(C1)c1nc(nc3c1oc1ccccc13)C(F)(F)CCCCC(F)(F)C2=O` gave an IC50 of 6.6 µM.

The compound `C[C@H]1CN2CC[C@H]1n1c(nc3ccccc31)O[C@H]1C[C@@H](C(=O)O)N(C1)c1nc(nc3c1oc1ccccc13)C(F)(F)COCCCCC2=O` registered an IC50 of 14 µM.
